Reference: ChEMBL document CHEMBL4265885, “New piperidine-based derivatives as sigma receptor ligands. Synthesis and pharmacological evaluation” (Bioorg Med Chem Lett, 2018)

Columns and labels:
SH-SY5Y = test: Cytotoxicity against human SH-SY5Y cells at 50 uM after 48 hrs by MTT assay; format: functional
PANC-1 = test: Cytotoxicity against human PANC1 cells at 50 uM after 48 hrs by MTT assay; format: functional
[1] = target: Sigma non-opioid intracellular receptor 1 (Rattus norvegicus, UniProt Q9R0C9); test: Displacement of [3H]-(+)-pentazocine from sigma1 receptor in rat liver membranes after 120 mins by liquid scintillation counting; format: cell membranes, Membrane
Sigma non-opioid intracellular receptor 1, sequence (Q9R0C9 whole entry): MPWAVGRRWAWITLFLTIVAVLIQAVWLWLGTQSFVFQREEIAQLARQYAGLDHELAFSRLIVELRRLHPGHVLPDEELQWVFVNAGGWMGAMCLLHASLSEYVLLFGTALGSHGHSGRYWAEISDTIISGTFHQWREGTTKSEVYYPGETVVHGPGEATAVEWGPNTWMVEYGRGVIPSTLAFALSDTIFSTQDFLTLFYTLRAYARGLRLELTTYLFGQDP

[2] = target: T1, Sigma intracellular receptor 2 (Rattus norvegicus, UniProt Q5U3Y7); test: Displacement of [3H]-DTG from sigma2 receptor in rat liver membranes after 120 mins by liquid scintillation counting; format: cell membranes, Membrane
T1 sequence (Q5U3Y7 whole entry): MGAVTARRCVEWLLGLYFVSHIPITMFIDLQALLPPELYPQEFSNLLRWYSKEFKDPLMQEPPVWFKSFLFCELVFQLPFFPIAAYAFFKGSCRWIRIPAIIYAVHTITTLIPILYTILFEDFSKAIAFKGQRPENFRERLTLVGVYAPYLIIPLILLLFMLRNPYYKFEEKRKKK

Rattus norvegicus = species on record: Rattus norvegicus; test: Selectivity index, ratio of Ki for sigma2 receptor in rat liver membranes to Ki for sigma1 receptor in rat liver membranes; format: cell membranes

Structure (SMILES) | Activity (SH-SY5Y) [%] | Activity (PANC-1) [%] | Ki [1] [nM] | Ki [2] [nM] | Ratio Ki (Rattus norvegicus)
Fc1ccc(-n2cc(CCCCN3CCC4(CC3)OCc3ccccc34)c3ccccc32)cc1 [SIRAMESINE] | 90 | 90 |  |  | 
CC(C)=CCN1CCC2(C)c3cc(O)ccc3CC1C2C (stereo unspecified) [PENTAZOCINE] | 5 | 5 |  |  | 
O=C(CCCN1CCC(O)(c2ccc(Cl)cc2)CC1)c1ccc(F)cc1 [HALOPERIDOL] | 66 | 66 |  |  | 
CCCN(CC1CCN(Cc2ccccc2)CC1)C(C)=O |  |  | 36.8 |  | 
Cc1ccccc1NC(=N)Nc1ccccc1C [DITOLYLGUANIDINE] | 80 | 80 |  |  | 
CCN(CC1CCN(Cc2ccccc2)CC1)C(C)=O |  |  | 97.2 | 422 | 4.3
c1ccc(CCN2CCCCC2)cc1 | 21 | 21 |  |  | 
CCCN(CCC)CCc1ccc(OC)c(OCCc2ccccc2)c1 | 92 | 92 |  |  | 
